The results in this text go back to patent publication US8324226B2, “Therapeutic oxy-phenyl-aryl compounds and their use” (Cancer Research Technology Limited, priority 2007, dated 2012).

This test addresses T1, CHK2 (Homo sapiens, UniProt O96017).
T1 construct: made in house
Nature of the test: CHK2 kinase activity assay (DELFIA, phosphorylation of a CDC25C peptide). The class given is biochemical. The conditions noted are these: ATP 30 μM, CHK2 1 nM, read-out: IC50, inhibition of CHK2 kinase activity in vitro.

SMILES strings stand for the structures. Several values for one entry are separate records, joined by “and”; a condition that tells them apart may be missing. Equal entries are not always repeated. Where two headings read alike, the source gives them in different places. Where only a bound is given, the exact number is not on record here.

T1 sequence (O96017 whole entry): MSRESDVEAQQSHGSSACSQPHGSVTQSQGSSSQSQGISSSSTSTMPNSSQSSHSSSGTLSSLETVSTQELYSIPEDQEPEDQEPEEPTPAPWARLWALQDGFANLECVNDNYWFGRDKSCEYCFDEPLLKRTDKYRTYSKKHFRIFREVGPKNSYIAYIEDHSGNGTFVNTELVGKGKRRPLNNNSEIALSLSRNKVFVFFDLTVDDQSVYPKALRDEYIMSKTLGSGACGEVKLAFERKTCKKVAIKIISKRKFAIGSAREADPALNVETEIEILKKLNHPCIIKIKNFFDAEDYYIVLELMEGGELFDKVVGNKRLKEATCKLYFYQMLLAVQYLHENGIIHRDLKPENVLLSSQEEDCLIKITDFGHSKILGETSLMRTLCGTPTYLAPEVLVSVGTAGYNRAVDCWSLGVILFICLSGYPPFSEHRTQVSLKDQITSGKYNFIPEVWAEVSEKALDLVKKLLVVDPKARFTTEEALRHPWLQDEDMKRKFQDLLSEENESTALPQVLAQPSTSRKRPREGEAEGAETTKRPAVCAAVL

For the molecule `Nc1nnc(-c2ccc(O)c(-c3nc(N[C@H]4CCNC4)c4ccccc4n3)c2)s1` [Compound A-110, (S)-4-(5-Amino-1,3,4-thiadiazol-2-yl)-2-(4-(pyrrolidin-3-ylamino)quinazolin-2-yl)phenol], the IC50 – broadly, the concentration needed to halve the response being measured – (following further studies) is at most 0.3 µM. `Oc1ccc(F)cc1-c1nc(N[C@H]2CCNC2)c2ccc(F)cc2n1` [Compound A-114, (S)-4-Fluoro-2-(7-fluoro-4-(pyrrolidin-3-ylamino)quinazolin-2-yl)phenol]: the half-inhibitory concentration (IC50) (following further studies) is at most 0.3 µM.

As for `NC1CCC(Nc2nc(-c3ccccc3O)nc3ccccc23)CC1` (stereo not shown) [Compound B-001, 2-[4-(4-Aminocyclohexylamino)-quinazolin-2-yl]-phenol], the IC50 is, setting by setting: (first set of tested compounds) 3 to 30 µM; (following further studies) 3 to 30 µM. `NC1CCCC(Nc2nc(-c3ccccc3O)nc3ccccc23)C1` (stereo not shown) [Compound B-004, 2-[4-(3-Aminocyclohexylamino)-quinazolin-2-yl]-phenol]: the IC50 (first set of tested compounds) was below 3 µM and the IC50 (following further studies) was in the range of 0.3 to 3 µM. Consider `Oc1ccccc1-c1cc(N[C@H]2CCNC2)c2ccccc2n1` [Compound C-001, (S)-2-(4-(Pyrrolidin-3-ylamino)quinolin-2-yl)phenol], for which the concentration for half-maximal inhibition (IC50) reads like this: (first set of tested compounds) 3 to 30 µM; (following further studies) 3 to 30 µM and 4.4 µM. Consider `Oc1ccccc1-c1nccc(N[C@H]2CCNC2)n1` [Compound D-002], for which the IC50 is, setting by setting: (first set of tested compounds) 3 to 30 µM; (following further studies) 3 to 30 µM and 8.2 µM.
